What was measured:
[1] = logP determination by HPLC on a reversed-phase column (C18), EEC Directive 79/831 Annex V.A8; assay type: physicochemical; settings: HPLC on reversed-phase column (C18), acetonitrile/water with formic acid, EEC Directive 79/831 Annex V.A8
Procedure, shortened: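 Per EEC 79/831 Annex V.A8, values derive from HPLC retention at 2.0 ml/min and 55° C on a 50*4.6 C18 column. The 10→95% acetonitrile gradient (0.1%/0.09% formic acid) lasted 4.25 min plus a 1.25 min hold; mass detection was by MSD.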

[2] = tested on: adult castor bean ticks (Ixodes ricinus); assay: Ixodes ricinus in vitro contact test with adult castor bean ticks (T3); settings: after 48 h
Procedure, shortened: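 Test compound was dissolved in acetone p.a. (9 mg in 1 ml) and diluted with acetone; 250 μl were spread evenly over the inner walls and floor of 25 ml test tubes by rocking on an orbital shaker (2 h, 30 rpm). Once the solvent evaporated, 5-10 adult Ixodes ricinus ticks were added, tubes closed with perforated lids and kept horizontally in darkness at 22° C. and 90% humidity. After 48 h, ticks were placed on a 45-50° C. hotplate for up to 5 min; those motionless or unable to climb away were scored dead or moribund.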

[3] = tested on: adult cat fleas (Ctenocephalides felis); assay: Ctenocephalides felis oral test (CTECFE); assay type: in vivo; settings: application rate 100 ppm in citrated cattle blood; after 2 days
Procedure, shortened: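 Mortality read at 2 days as percent of fleas killed. Compound predissolved in DMSO, diluted into citrated cattle blood and offered to roughly 20 unfed adult C. felis via parafilm membrane feeder.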

[4] = tested on: engorged adult female cattle ticks (Boophilus microplus); assay: Boophilus microplus injection test (BOOPMI Inj); assay type: in vivo; settings: application rate 20 μg/animal; injection into abdomen; assessed after 7 days
Procedure, shortened: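 Efficacy is read at 7 days as fertile egg laying (100% = no fertile eggs laid; 0% = all eggs fertile), with eggs of unclear fertility stored until larvae hatch at about 42 days. Five engorged adult females per dose each receive an abdominal injection of 1 μl compound dissolved in DMSO.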

[5] = tested on: larvae of the mustard beetle (Phaedon cochleariae); assay: Phaedon cochleariae spray test (PHAECO); assay type: in vivo; settings: application rate 100 g/ha; Chinese cabbage leaf discs; after 7 days
Procedure, shortened: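 Kill of mustard beetle larvae is read as % mortality 7 days after spraying. Spray liquid: active compound in acetone plus dimethylformamide, brought up with water holding 1000 ppm alkylaryl polyglycol ether emulsifier and diluted further in emulsifier-water.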

[6] = tested on: cattle ticks (Boophilus microplus) Parkhurst strain, SP-resistant; assay: Boophilus microplus dip test (BOOPMI Dip); assay type: in vivo; settings: application rate 100 ppm, assessed after 7 days
Procedure, shortened: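 Adult engorged female SP-resistant Parkhurst ticks (8–10) were fully immersed in compound diluted in water from a DMSO solution, then kept in a climate-controlled room. After 7 days, fertile egg-laying was scored, with larval hatching checked at about 42 days; 100% efficacy means no fertile eggs.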

[7] = tested on: green peach aphid (Myzus persicae); assay: Myzus persicae spray test (MYZUPE); assay type: in vivo; settings: application rate 100 g/ha; Chinese cabbage leaf discs; after 6 days
Procedure, shortened: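 Chinese cabbage leaf discs infested with all aphid stages sprayed with compound in acetone/DMF with alkylaryl polyglycol ether emulsifier in water. Efficacy (% aphids killed; 100% all dead, 0% none) scored after 6 days.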

[8] = tested on: greenhouse red spider mite (Tetranychus urticae); assay: Tetranychus urticae spray test, OP-resistant (TETRUR); assay type: in vivo; settings: application rate 100 g/ha; bean leaf discs; after 6 days
Procedure, shortened: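 Percent kill, scored 6 days post-spray (0% = none dead, 100% = all dead), on Phaseolus vulgaris leaf discs infested with every life stage of the OP-resistant spider mite. Compound dissolved in acetone plus DMF, diluted to test concentration with emulsifier-containing water (1000 ppm).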

Structure (SMILES): Cn1nc(C(F)(F)C(F)(F)F)c(C(F)(F)F)c1-n1cc(-c2ccc(Cl)c(C(=O)NC3(C#N)CC3)c2)cn1 [Ic-2]
- logP [1]: 3.72
- efficacy (dead or moribund ticks) ([2]; application rate 1 μg/cm^2): 100%
- efficacy (dead or moribund ticks) ([2]; application rate 5 μg/cm^2): 100%
- efficacy (kill in %) [3]: 100%
- efficacy (laying of fertile eggs) [4]: 100%
- efficacy in % [5]: 100%
- efficacy (laying of fertile eggs) [6]: 100%
- efficacy in % [7]: 100%
- efficacy in % [8]: 100%

— patent publication US9487489B2, “Halogen-substituted pyrazole derivatives as pest-control agents” (BAYER CROPSCIENCE AKTIENGESELLSCHAFT, priority 2013, dated 2016)
